In the METLIN SMRT retention time set (Domingo-Almenara et al. 2019):

Assay: gradient 5% acetonitrile 3 min, to 50% in 2 min, to 85% in 15 min, held 3 min, 100 µL/min
Details: column: Zorbax Extend-C18 2.1 x 50 mm; eluents: water / acetonitrile, 0.1% formic acid
How it was run: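 Retention times of pure standards were taken from adduct peaks that were selected by computer and manually inspected. Over 3 months, mixtures of ~100 molecules were run by HPLC–quadrupole time-of-flight mass spectrometry in positive and negative ionization mode. The Zorbax Extend-C18 column (2.1 × 50 mm, 1.8 μm) ran at 100 μL/min in water and acetonitrile, each containing 0.1% formic acid, with 40 μL dead volume and 900 μL dwell volume.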

Row | Compound | RP-LC retention time
1 | COc1ccc(C)cc1NC1=NS(=O)(=O)c2ccccc21 | 852 s
2 | Cc1ccnc(N2CCCC(C(=O)NCc3ccc4c(c3)OCO4)C2)n1 (centres undefined) | 692 s
3 | CCSc1nnc(-c2nn(C)c3c2CN(S(=O)(=O)c2ccc(C)c(Cl)c2)CC3)n1CC | 1050 s
4 | Cc1nn2c(CNS(=O)(=O)Cc3ccccc3)c(-c3ccccc3)nc2s1 | 876 s
5 | CCn1c(=O)c2cc(C(=O)NCc3cn[nH]c3C)nn2c2ccccc21 | 781 s
6 | CCc1nc(-c2csc(S(=O)(=O)N3CCCC(C(=O)NCc4ccc(Cl)cc4)C3)c2)no1 (centres undefined) | 1030 s
7 | Cc1ccc(CNc2nnc(-c3nnc(C)o3)c3ccccc23)cc1 | 830 s
8 | CCn1cc(-c2ccc(Cl)cc2)cc1C(=O)NC(C)c1cccnc1 (centres undefined) | 758 s
9 | CNC(=O)N1CCCC(c2cccc(C(=O)N3CCN(c4cccc(Cl)c4)CC3)c2)C1 (centres undefined) | 895 s
10 | O=C(Cn1nc2c(cc1=O)CCCC2)Nc1ccc(N2CCCS2(=O)=O)cc1 | 668 s
11 | COc1ccc(OCc2noc(CNC(=O)c3cnn(-c4ccccc4)c3C)n2)cc1 | 799 s
12 | Cc1cc(C)n(CCC(=O)N[C@@H]2CN(S(C)(=O)=O)C[C@H]2CN(C)C)n1 | 564 s
13 | COCCN1CCn2cc(S(=O)(=O)Nc3ccc(C)cc3C)cc2C1=O | 730 s
14 | COc1cccc(Cn2nc3n(C)c(=O)c4ccc(C(=O)NC5CCCC5)cc4n3c2=O)c1 | 851 s
15 | CCSc1nnc(-c2nn(C)c3c2CN(S(=O)(=O)Cc2ccccc2F)CC3)n1CC | 905 s
16 | Cc1ccc2c(=O)c3c([nH]c2c1C)CCN(CC(=O)NC1CCCCC1)C3 | 619 s
17 | O=C(Cn1cccc1-c1nnc(C2CCC2)o1)N1CCc2ccccc2C1 | 915 s
18 | CCc1nn2c(CNC(=O)c3cccc(Br)c3)c(-c3ccccc3)nc2s1 | 1030 s
19 | CC(C)C(=O)NC(C)c1nc2ccccc2n1CC(N)=O (centres undefined) | 503 s
20 | COc1ccc2[nH]cc(C(=O)O)c(=O)c2c1 | 605 s
21 | Cc1ccc(CNC(=O)Cn2cc(C(=O)N3CCCC3)c(=O)c3ccc(C)nc32)cc1 | 694 s
22 | CC(CCNC(=O)c1ccc(NC(=O)C2=CSCCO2)cc1)N1CCCC1 (centres undefined) | 600 s
23 | O=C(c1ccco1)N1CCN(c2ccc(-c3nc(-c4cccc(F)c4)no3)cn2)CC1 | 893 s

Row | Compound | RP-LC retention time
24 | Cc1cccc(-c2ncccc2CNC(=O)c2ccco2)c1 | 596 s
25 | O=C1COc2cc(S(=O)(=O)N3CCC(C(=O)NC4CCCCC4)CC3)c(Cl)cc2N1 | 772 s
26 | COC[C@@H](c1ccc(C(F)(F)F)cc1)N1CCN(C2(C)CCN(C(=O)c3c(C)ncnc3C)CC2)C[C@@H]1C | 744 s
27 | CCn1cnc2ccc(-c3noc(Cc4ccc(OC)cc4)n3)cc21 | 728 s
28 | O=S(=O)(NCC1CCN(Cc2cccs2)CC1)c1cc(F)ccc1F | 562 s
29 | CCCN1CCN(C(=O)C2CCN(S(=O)(=O)c3cc(-c4noc(CC)n4)sc3C)CC2)CC1 | 666 s
30 | O=C(NCc1cccnc1)C1(c2ccccc2)CCOCC1 | 540 s
31 | C=CCNC(=O)c1cnn(-c2cc(-c3nc(C4CC4)no3)ccn2)c1C | 895 s
32 | CCCc1cc(C2CCCN2C(=O)c2ccc(OC)c(OC)c2)no1 (centres undefined) | 793 s
33 | COc1ccc2c(c1)C1(CCN(C(=O)Cc3ccc(OC)c(Cl)c3)C1)C(=O)N2 (centres undefined) | 745 s
34 | O=C(CCC1CCCN(C(=O)Nc2ccccc2)C1)NCc1cccc(F)c1 (centres undefined) | 806 s
35 | CC(C)c1ccc(S(=O)(=O)N2CCc3nn(C)c(=O)n3CC2)cc1 | 785 s
36 | CCOC(=O)N1CCN(C(=O)C2CN(C(=O)c3c[nH]c4ccccc34)C2)CC1 | 633 s
37 | CN(C1CCc2nn(C)c(=O)n2CC1)S(=O)(=O)c1ccccc1Cl (centres undefined) | 865 s
38 | CN(c1ccc(F)cc1)S(=O)(=O)N1CCCC(C(=O)N2CCN(c3ccccn3)CC2)C1 (centres undefined) | 660 s
39 | CCn1cnc(S(=O)(=O)N2CCC(C(=O)Nc3cc(C)ccc3OC)CC2)c1 | 674 s
40 | CCN1CCC2(CC1)N=C(c1ccccc1)CC(c1cccc(OC)c1O)N2 (centres undefined) | 584 s
41 | CCCN(CC1CCOC1)C(=O)Nc1cccc(F)c1C (centres undefined) | 758 s
42 | Cc1ccc(C(=O)NCc2noc(C3CCCC3)n2)cc1 | 842 s
43 | CC(CCNc1ccc(-c2nc(-c3ccc(F)cc3)no2)cn1)N1CCCCCC1 (centres undefined) | 768 s
44 | CN1C(=O)CCc2cc(NC(=O)c3ccsc3)ccc21 | 691 s
45 | CCCCC#Cc1nc(NC)c2ncn([C@@H]3O[C@H](CO)C(O)[C@@H]3O)c2n1 (some centres undefined) | 724 s
46 | COc1ccc(C(C)NC(=O)C2CCN(C(=O)c3ncn4c3COC(c3ccccc3)C4)CC2)cc1 (centres undefined) | 754 s

Row | Compound | RP-LC retention time
47 | C[C@H](NCc1ccc(OCc2cccc(F)c2)cc1)C(N)=O | 708 s
48 | O=C(c1ccoc1)N1[C@H]2CC[C@@H]1c1cnc(-c3ccc(F)cc3)nc1C2 | 882 s
49 | COc1ccccc1C(=O)N1CCC2(CC1)N=C(c1ccc(Br)cc1)C(=O)N2 | 863 s
50 | CCN1CCCn2cc(S(=O)(=O)Nc3ccc(OC)c(Cl)c3)cc2C1=O | 740 s
51 | COc1ccc(-c2ccnc3nc(CC(C)C)nn23)cc1 | 905 s
52 | COCCc1noc(C2Cc3ccccc3N2C(=O)Nc2ccc(C)c(C)c2)n1 (centres undefined) | 1060 s
53 | C=CCN1CCN(c2nc3cc(C(=O)OC)ccc3c(=O)n2-c2ccc(OC)c(OC)c2)CC1 | 631 s
54 | CCc1ccc(S(=O)(=O)Nc2ccc(C3(C(=O)NCC4CCCO4)CC3)cc2)cc1 (centres undefined) | 867 s
55 | Cc1cccc(NC(=O)N(C)CCc2noc(COc3ccccc3)n2)c1 | 927 s
56 | COc1ccc(C2(C(=O)N3CCCCCCNC(=O)[C@@H]4CCCC[C@@H]43)CC2)cc1 | 894 s
57 | Cc1ccc(Cn2c(=O)c(N3CCN(C(=O)NCc4ccco4)CC3)nc3ccccc32)cc1 | 1010 s
58 | CCn1cnc2ccc(C(=O)NC3CC3)cc2c1=O | 714 s
59 | CCNC(=O)N1CC(n2cc(C(=O)NCCCOC)nn2)C1 | 580 s
60 | O=C(C1CCCN1c1nnc(N2CCCC2=O)s1)N1CCN(c2ccccn2)CC1 (centres undefined) | 547 s
61 | COc1cccc(S(=O)(=O)N2CCc3c(c(-c4nnc(-c5ccccc5F)o4)nn3C)C2)c1 | 916 s
62 | CCn1c(=O)c(C)nc2cc(-c3noc(-c4cc(OC)c(OC)c(OC)c4)n3)ccc21 | 919 s
63 | COc1ccc(S(=O)(=O)N2CCCC(C(=O)NC3CC3)C2)cc1OC (centres undefined) | 702 s
64 | COc1ccc(OCc2nc(-c3ccc4nnn(C)c4c3)no2)cc1 | 916 s
65 | COCCN1CCCCc2cc(C(=O)NC3CCS(=O)(=O)C3)sc21 (centres undefined) | 734 s
66 | COc1ccc(-n2ncc3c(=O)n(Cc4nc(-c5cccc(C(F)(F)F)c5)no4)cnc32)cc1 | 1130 s
67 | CCNC(=O)c1cc(N(C)C)nc2ccccc12 | 567 s
68 | O=C(NCCCn1nc(-c2ccco2)ccc1=O)Nc1ccc2c(c1)OCO2 | 678 s
69 | O=C(Nc1nnc(C2CC(=O)N(c3ccc(F)cc3)C2)o1)c1ccc(C(F)(F)F)cc1 (centres undefined) | 830 s

Row | Compound | RP-LC retention time
70 | CCCNC(=O)C1CCN(c2ccc(SCC(=O)NCCc3ccc(Cl)cc3)nn2)CC1 | 663 s
71 | CCCCS(=O)(=O)c1cc2c(cc1NC(=O)c1cccc(F)c1)n(C)c(=O)n2C | 966 s
72 | Cc1cc(NC(=O)C(=O)NCc2nc(-c3ccccc3)no2)no1 | 742 s
73 | COCCCNC(=O)C1CCN(C(=O)c2ncn3c2COC(c2ccc(OC)cc2)C3)CC1 (centres undefined) | 651 s
74 | COc1ccc2c(c1O)-c1cccc3c1[C@@H](C2)N(C)CC3 | 643 s
75 | C=CCn1c(C)c(CC(=O)NCC2CCCO2)c(=O)n2nc(-c3ccccc3)nc12 (centres undefined) | 717 s
76 | CCn1ccc2sc(C)c(C(=O)NC3CCCC3)c2c1=O | 733 s
77 | Cc1nn(-c2cc(N3CCOCC3)ncn2)c(C)c1CCC(=O)NCCc1ccco1 | 734 s
78 | Cc1ccsc1C(=O)Nc1ccc(N2CCN(C3CCCCC3)C2=O)nc1 | 863 s
79 | Cn1c(C(=O)NC2CCN(Cc3ccccc3)CC2)cc2c(=O)oc3ccccc3c21 | 667 s
80 | CC1CCCCN1S(=O)(=O)c1ccc2c(c1)CCC(=O)N2CC(=O)NCc1ccc(N(C)C)cc1 (centres undefined) | 676 s
81 | CCc1ccccc1S(=O)(=O)Cc1ccc(C(=O)N2CCN(c3ccccn3)CC2)o1 | 637 s
82 | Cc1nc(-c2ccccc2)cc2nn(CC(=O)Nc3cc(F)cc(F)c3)c(=O)n12 | 998 s
83 | Cc1noc2nc(C)n(CC(=O)Nc3ccccc3F)c(=O)c12 | 752 s
84 | COC(=O)c1cc(S(=O)(=O)N2CCCC2C(=O)Nc2cccc(C)n2)cn1C (centres undefined) | 773 s
85 | COc1ccc2c(c1)C1(CCN(C(=O)c3cccc(C)c3)C1)C(=O)N2 (centres undefined) | 738 s
86 | Cc1ccc(NC(=O)C2CC(=O)N(c3ccc4c(c3)CCN4C(=O)C3CC3)C2)c(F)c1 (centres undefined) | 787 s
87 | CC(C)n1c(CN2CCOCC2)nc2ccccc21 | 556 s
88 | CCc1cccc(NC(=O)C2(C)Oc3cccnc3NC2=O)c1 (centres undefined) | 704 s
89 | CCOC(=O)Cc1ccc(NC(=O)N2CCSc3nc(C)cc(C)c32)cc1 | 735 s
